In ChEMBL document CHEMBL1201862, “PubChem BioAssay data set” (2004):
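Method: 48-hour compound exposure of cells in 96-well plates, five concentrations, linear interpolation of endpoints. GI50 is the concentration that inhibits growth by half.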 Calls of active or inactive are those of the source. No stated cut-off is given here; in the data, active = GI50 up to about 1.1 µM and inactive = higher.

How the values were obtained:
Test in all cases: NCI tumour cell line growth inhibition, 48 h
K562 = tested on: K562
CCRF-CEM = tested on: CCRF-CEM
KM12 = tested on: KM12
U-251 = tested on: U-251
MDA-MB-435 = tested on: MDA-MB-435
RXF 393 = tested on: RXF 393
RPMI-8226 = tested on: RPMI-8226
OVCAR-8 = tested on: OVCAR-8
MOLT-4 = tested on: MOLT-4
ACHN = tested on: ACHN
SN12C = tested on: SN12C
A549 = tested on: A549
HCT-15 = tested on: HCT-15
786-0 = tested on: 786-0
SR = tested on: SR
SNB-75 = tested on: SNB-75
NCI-H23 = tested on: NCI-H23
UO-31 = tested on: UO-31
NCI-H522 = tested on: NCI-H522
OVCAR-4 = tested on: OVCAR-4
SW-620 = tested on: SW-620
UACC-257 = tested on: UACC-257
SF-295 = tested on: SF-295
DU-145 = tested on: DU-145
SNB-19 = tested on: SNB-19
Hs-578T = tested on: Hs-578T
M14 = tested on: M14
MCF7 = tested on: MCF7
HCT-116 = tested on: HCT-116
BT-549 = tested on: BT-549
HOP-92 = tested on: HOP-92
CAKI-1 = tested on: CAKI-1
SK-MEL-28 = tested on: SK-MEL-28
SF-539 = tested on: SF-539
PC-3 = tested on: PC-3
MDA-MB-231 = tested on: MDA-MB-231
TK-10 = tested on: TK-10
IGROV-1 = tested on: IGROV-1
HOP-62 = tested on: HOP-62
NCI/ADR-RES = tested on: NCI/ADR-RES
COLO 205 = tested on: COLO 205
A498 = tested on: A498
SK-OV-3 = tested on: SK-OV-3
SK-MEL-5 = tested on: SK-MEL-5
EKVX = tested on: EKVX
HT-29 = tested on: HT-29
SK-MEL-2 = tested on: SK-MEL-2
HCC 2998 = tested on: HCC 2998
OVCAR-5 = tested on: OVCAR-5
T47D = tested on: T47D
UACC-62 = tested on: UACC-62
NCI-H226 = tested on: NCI-H226
OVCAR-3 = tested on: OVCAR-3
SF-268 = tested on: SF-268
MDA-N = tested on: MDA-N
HL-60 = tested on: HL-60
Malme-3M = tested on: Malme-3M
LOX IMVI = tested on: LOX IMVI

## CC(C)=C1C(=O)C[C@]2(C)C/C=C(\C)CC/C=C(\C)CC[C@@H]12
K562
  GI50: 6.65 µM (inactive)
CCRF-CEM
  GI50: 9.23 µM (inactive)
KM12
  GI50: 8.67 µM (inactive)
U-251
  GI50: 7.62 µM (inactive)
MDA-MB-435
  GI50: 9.53 µM (inactive)
RXF 393
  GI50: 7.29 µM (inactive)
RPMI-8226
  GI50: 11.9 µM (inactive)
OVCAR-8
  GI50: 8.51 µM (inactive)
MOLT-4
  GI50: 8.61 µM (inactive)
ACHN
  GI50: 9.02 µM (inactive)
SN12C
  GI50: 9.42 µM (inactive)
A549
  GI50: 14.1 µM (inactive)
HCT-15
  GI50: 8.28 µM
786-0
  GI50: 8.69 µM (inactive)
SR
  GI50: 9.86 µM (inactive)
SNB-75
  GI50: 9.66 µM (inactive)
NCI-H23
  GI50: 10.2 µM (inactive)
UO-31
  GI50: 7.73 µM (inactive)
NCI-H522
  GI50: 6.97 µM (inactive)
OVCAR-4
  GI50: 15.3 µM (inactive)
SW-620
  GI50: 9.31 µM (inactive)
UACC-257
  GI50: 11.1 µM (inactive)
SF-295
  GI50: 11.3 µM (inactive)
DU-145
  GI50: 16.7 µM (inactive)
SNB-19
  GI50: > 50 µM (inactive)
Hs-578T
  GI50: 11 µM (inactive)
M14
  GI50: 7.87 µM (inactive)
MCF7
  GI50: 11.5 µM (inactive)
HCT-116
  GI50: 8.32 µM (inactive)
BT-549
  GI50: 10.9 µM (inactive)
HOP-92
  GI50: 9.53 µM (inactive)
CAKI-1
  GI50: 7.96 µM (inactive)
SK-MEL-28
  GI50: 8.22 µM (inactive)
SF-539
  GI50: 8.57 µM (inactive)
PC-3
  GI50: 11.8 µM (inactive)
MDA-MB-231
  GI50: 7.89 µM (inactive)
TK-10
  GI50: 9.42 µM (inactive)
IGROV-1
  GI50: 9.4 µM (inactive)
HOP-62
  GI50: 9.08 µM (inactive)
NCI/ADR-RES
  GI50: 7.36 µM (inactive)
COLO 205
  GI50: 8.51 µM (inactive)
A498
  GI50: 20.8 µM (inactive)
SK-OV-3
  GI50: 18.9 µM (inactive)
SK-MEL-5
  GI50: 8.38 µM (inactive)
EKVX
  GI50: 11.2 µM (inactive)
HT-29
  GI50: 9.08 µM (inactive)
SK-MEL-2
  GI50: 7.85 µM (inactive)
HCC 2998
  GI50: 7.53 µM (inactive)
OVCAR-5
  GI50: 12.1 µM (inactive)
T47D
  GI50: 14.9 µM (inactive)
UACC-62
  GI50: 7.74 µM (inactive)
NCI-H226
  GI50: 8.69 µM (inactive)
OVCAR-3
  GI50: 8.53 µM (inactive)
SF-268
  GI50: 8.93 µM (inactive)

## COc1cc(/C=N\c2nc(-c3ccc(NS(=O)(=O)c4ccc(Cl)c(OC)c4)cc3)cs2)ccc1O
K562
  GI50: 27.9 µM (inactive)
CCRF-CEM
  GI50: 30.1 µM (inactive)
KM12
  GI50: 29.2 µM (inactive)
MDA-MB-435
  GI50: 35.4 µM (inactive)
RXF 393
  GI50: 27.9 µM (inactive)
RPMI-8226
  GI50: 21 µM (inactive)
OVCAR-8
  GI50: 50.1 µM (inactive)
MOLT-4
  GI50: 16.4 µM (inactive)
ACHN
  GI50: 50.7 µM (inactive)
SN12C
  GI50: 42.3 µM (inactive)
A549
  GI50: 74.6 µM (inactive)
HCT-15
  GI50: > 100 µM
786-0
  GI50: > 100 µM (inactive)
SR
  GI50: 30.8 µM (inactive)
SNB-75
  GI50: 89.5 µM (inactive)
NCI-H23
  GI50: 31.1 µM (inactive)
UO-31
  GI50: 60.8 µM (inactive)
NCI-H522
  GI50: 18.8 µM (inactive)
MDA-N
  GI50: 29.6 µM (inactive)
OVCAR-4
  GI50: 35.2 µM (inactive)
SW-620
  GI50: 41.1 µM (inactive)
SF-295
  GI50: > 100 µM (inactive)
DU-145
  GI50: > 100 µM (inactive)
SNB-19
  GI50: > 100 µM (inactive)
Hs-578T
  GI50: 62.5 µM (inactive)
M14
  GI50: 95.5 µM (inactive)
MCF7
  GI50: 21 µM (inactive)
HCT-116
  GI50: 37.7 µM (inactive)
BT-549
  GI50: 28.8 µM (inactive)
HOP-92
  GI50: 24.9 µM (inactive)
CAKI-1
  GI50: > 100 µM (inactive)
SK-MEL-28
  GI50: 33.2 µM (inactive)
SF-539
  GI50: 47.5 µM (inactive)
PC-3
  GI50: 50.8 µM (inactive)
HL-60
  GI50: 26.1 µM (inactive)
IGROV-1
  GI50: 43.3 µM (inactive)
Malme-3M
  GI50: 45 µM (inactive)
HOP-62
  GI50: > 100 µM (inactive)
NCI/ADR-RES
  GI50: > 100 µM (inactive)
COLO 205
  GI50: 30.1 µM (inactive)
SK-OV-3
  GI50: > 100 µM (inactive)
SK-MEL-5
  GI50: 62.8 µM (inactive)
EKVX
  GI50: 26.7 µM (inactive)
LOX IMVI
  GI50: 35.7 µM (inactive)
HT-29
  GI50: > 100 µM (inactive)
SK-MEL-2
  GI50: 32.2 µM (inactive)
OVCAR-5
  GI50: > 100 µM (inactive)
T47D
  GI50: 17.4 µM (inactive)
UACC-62
  GI50: 9.71 µM (inactive)
NCI-H226
  GI50: > 100 µM (inactive)
OVCAR-3
  GI50: 69.5 µM (inactive)
SF-268
  GI50: 37.6 µM (inactive)
